Test results reported in publication PMC2995054 (Nucleic Acids Research, 2010).

Target: vaccinia virus D10 decapping enzyme (His-tagged, WT) (Vaccinia virus, UniProt P04312)
Experiment: biochemical
Format: biochemical
Details: for remaining activity at 100 µM: 0.25 h, read-out: Relative decapping activity (%) (100 µM analog)

Compound | Inhibition of the decapping reaction (in words) | IC50 [µM] | Ki [µM] | remaining activity at 100 µM [%]
Cc1cn([C@@H]2O[C@H](COP(=O)(O)OP(=O)(O)OP(=O)(O)O)[C@@H](O)[C@H]2O)c(=O)nc1N [5-methyl-CTP] | unable to affect the activity of the enzyme | – | – | –
O=P(O)(O)OP(=O)(O)O [pyrophosphate] | unable to inhibit | – | – | –
O=c1ccn([C@@H]2O[C@H](COP(=O)(O)OP(=O)(O)OP(=O)(O)O)[C@@H](O)[C@H]2O)c(=O)[nH]1 [UTP] | no inhibition | – | – | –
O=P(O)(O)OP(=O)(O)OP(=O)(O)O [tripolyphosphate] | unable to inhibit | – | – | –
Nc1ccn([C@@H]2O[C@H](COP(=O)(O)OP(=O)(O)O)[C@@H](O)[C@H]2O)c(=O)n1 [CDP] | unable to affect the activity of the enzyme | – | – | –
O=c1ccn([C@@H]2O[C@H](COP(=O)(O)OP(=O)(O)O)[C@@H](O)[C@H]2O)c(=O)[nH]1 [UDP] | unable to affect the activity of the enzyme | – | – | –
Nc1nc2nc[nH]c2c(=O)[nH]1 [Guanine] | did not affect the decapping reaction | > 200 | > 0.8 | 92 ± 4
Cc1cn([C@@H]2O[C@H](COP(=O)(O)OP(=O)(O)OP(=O)(O)O)[C@@H](O)[C@H]2O)c(=O)[nH]c1=O [5-methyl-UTP] | unable to affect the activity of the enzyme | – | – | –
Nc1ccn([C@@H]2O[C@H](COP(=O)(O)OP(=O)(O)OP(=O)(O)O)[C@@H](O)[C@H]2O)c(=O)n1 [CTP] | no inhibition | – | – | –
NC(=O)c1ncn([C@@H]2O[C@H](CO[P@@](=O)(O)O[P@](=O)(O)OP(=O)(O)O)[C@@H](O)[C@H]2O)n1 [Ribavirin triphosphate] | – | > 200 | > 0.8 | 96 ± 3
